Patent US20230203558A1, “[…] FOR USE IN A METHOD OF DIAGNOSIS OF VIRAL INFECTION, KIT AND SYSTEM” (Original G B.V., priority 2020, published 2023)
“And” between values parts separate entries of the source, which are not always exact repeats. Identical values can stand only once. Where no end group is shown, it is not given here.

Columns and labels:
elastase = assay: Relative activity (NIR fluorescence) of quenched peptides with control protease elastase; format: biochemical
SARS-CoV-2 main protease [1] = target: T1, SARS-CoV-2 main protease (Severe acute respiratory syndrome coronavirus 2, UniProt P0DTD1); conditions: 0.1 mg/mL peptide; for Cleavage of peptide (site) by SARS-CoV-2 main protease: protease 10 μM, RP-HPLC-MS
Procedure: Mass spectra were acquired on a Agilent Technologies 6530 Accurate Mass Q-TOF LC/MS with an Agilent Infinity 1260/1290 HPLC. RP-HPLC was carried out using a RP-aqueous 030 analytical column, 5 uM, 150×2.0 mm [Phenomenex]. The mobile phase was A) 10 mM ammonium formate/2% v/v MeCN, pH 6.2 and B) 10 mM ammonium formate/90% v/v MeCN, pH 6.2.
The gradient used was 0.2 mL-min, 25 minutes.
0.1 mg/mL solution of each peptide in Table 3 was incubated with SARS-CoV-2 main protease (at 10 μM).

SARS-CoV-2 main protease [2] = target: T1, SARS-CoV-2 main protease
SARS-CoV-2 = assay: Clinical samples PCR-characterized for SARS-CoV-2, relative activity on DeNIRO; conditions: peptide 20 μM; for Relative activity class, SARS-CoV-2 positive (swab): room temperature, 0-60 minutes
Rhinovirus = assay: Clinical sample, Rhinovirus positive, relative activity on DeNIRO; conditions: peptide 20 μM
saliva proteases = assay: Cross reactivity to saliva proteases; format: biochemical; design: key: −: Not observed; +: observed
[3] = test system: Mycobacterium tuberculosis

| Substance | Relative activity, Elastase 0.2 μM (elastase; peptide concentration 5 μM) | Relative activity, Elastase 0.2 μM (elastase; peptide concentration 20 μM) | Cleavage fragment (SARS-CoV-2 main protease [1]; SARS-CoV-2 main protease 10 μM, 4 hours) | Cleavage of peptide (site) by SARS-CoV-2 main protease (SARS-CoV-2 main protease [1]) | Ratio for SARS-CoV-2 main protease to elastase (SARS-CoV-2 main protease [2]) | Relative activity, SARS-CoV-2 main protease 0.2 μM (SARS-CoV-2 main protease [2]; pH 7.3) | Relative activity class, SARS-CoV-2 negative (saliva) (SARS-CoV-2) | Relative activity class, SARS-CoV-2 negative (swab) (SARS-CoV-2) | Relative activity class, SARS-CoV-2 positive (saliva) (SARS-CoV-2) | Relative activity class, SARS-CoV-2 positive (swab) (SARS-CoV-2) | Relative activity class, Rhinovirus positive (Rhinovirus) | Cross reactivity to saliva proteases (saliva proteases) | Relative activity class, Mycobacterium tuberculosis positive [3] | increase in RFU (SARS-CoV-19 virus) |
| --- | --- | --- | --- | --- | --- | --- | --- | --- | --- | --- | --- | --- | --- | --- |
| Cy7-Ahx-AAFAA-K(QC1)-CONH2 [Peptide 3] | 2.2 | 87.1 | NONE | No cleavage was observed | 0.15 | 0.4 and 0.6 |  |  |  |  |  |  |  |  |
| Cy7-Ahx-[PEG1]-HQS[PEG1]K(QC1)-CONH2 [Peptide 2] | 0.1 | 0.9 |  | between Q-S | 54 |  | − (a relative activity of <10% indicates absence of SARS-CoV-2 (−)) | − (a relative activity of <10% indicates absence of SARS-CoV-2 (−)) | + (A relative activity of >10% indicates the presence of SARS-CoV-2 (+)) | + (A relative activity of >10% indicates the presence of SARS-CoV-2 (+)) | − (a relative activity of <10% indicates absence of SARS-CoV-2 (−)) | − | − (key: A relative activity of >10% indicates the presence of SARS-CoV-2 (+); a relative activity of <10% indicates absence of SARS-CoV-2 (−)) |  |
| Cy7-Ahx-[PEG1]VLQS[PEG1]K(QC1)-CONH2 [Peptide 1] | 7 | 8.5 |  | between Q-S | 3.5 |  | − (a relative activity of <10% indicates absence of SARS-CoV-2 (−)) | − (a relative activity of <10% indicates absence of SARS-CoV-2 (−)) | + (A relative activity of >10% indicates the presence of SARS-CoV-2 (+)) | + (A relative activity of >10% indicates the presence of SARS-CoV-2 (+)) | − (a relative activity of <10% indicates absence of SARS-CoV-2 (−)) | − | − (key: A relative activity of >10% indicates the presence of SARS-CoV-2 (+); a relative activity of <10% indicates absence of SARS-CoV-2 (−)) |  |
| Ex 1.1: fluorescently quenched peptide (TVRLQSGF) with fluorescent agent, non-fluorescent agent and cleavage site specific for a Coronavirus (also: fluorophore and quencher, sites not given here) |  |  |  |  |  |  |  |  |  |  |  |  |  | An increase in RFU is detected |
